According to ChEMBL document CHEMBL5036330, “Discovery of 8,9-seco-ent-Kaurane Diterpenoids as Potential Leads for the Treatment of Triple-Negative Breast Cancer” (J Med Chem, 2021):
Calls of active or inactive are those of the source. The calls are words filed in the database; no cut-off is given here.

Assays:
[1] = Toxicity in NOD/SCID mouse assessed as cytotoxicity in kidney at 10 mg/kg, ip treated for 33 days by H&E staining analysis; format: organism-based; settings: in vivo, 792 h, time 33 day
MDA-MB-231 [2] = test: Induction of mitochondrial depolarization in human MDA-MB-231 cells assessed as monomers at 5 uM in dark by JC10 staining based fluorescence microscopy (reference value: 5.6%); format: functional
MDA-MB-468 [3] = test: Induction of cell cycle arrest in human MDA-MB-468 cells assessed as accumulation of cells at G1 phase at 5 uM measured after 24 hrs by flow cytometry (reference value: 26.6%); format: functional
MDA-MB-231 [4] = test: Induction of cell cycle arrest in human MDA-MB-231 cells assessed as accumulation of cells at G1 phase at 2 uM measured after 24 hrs by flow cytometry (reference value: 47.7%); format: functional
MDA-MB-231 [5] = test: Antitumor activity against human MDA-MB-231 cells xenografted in NOD/SCID mouse assessed as decrease in CD31 expression in tumor tissue at 5 to 10 mg/kg, ip treated for 33 days by immunohistochemical analysis; format: functional, organism-based; settings: dose 5-10 mg/kg, time 33.0 day
MDA-MB-231 [6] = test: Antiinvasive activity against in human MDA-MB-231 cells assessed as reduction in MMP2 expression measured upto 72 hrs by Western blot analysis; format: functional, cell-based; settings: dose 0.1-0.2 µM, time hrs <=72
MDA-MB-231 [7] = test: Cytotoxicity against Akt1-silenced human MBA-MB-231 cells assessed as cell viability measured after 24 hrs; format: functional, cell-based
MDA-MB-468 [8] = test: Antitumor activity against human MDA-MB-468 cells xenografted in NOD/SCID mouse assessed as increase in TUNEL expression in tumor tissue at 5 to 10 mg/kg, ip treated for 33 days by immunohistochemical analysis; format: functional, organism-based; settings: dose 5-10 mg/kg, time 33.0 day
Homo sapiens = species: Homo sapiens; test: Inhibition of PI3K (unknown origin) by ADP-Glo assay
MDA-MB-468 [9] = test: Induction of apoptosis in human MDA-MB-468 cells assessed as early apoptotic cells at 1 uM measured after 24 hrs by Annexin V/Propidium iodide stain based Flow cytometry (reference value: 7.98%); format: functional
MDA-MB-468 [10] = test: Induction of apoptosis in human MDA-MB-468 cells assessed as late apoptotic cells at 5 uM measured after 24 hrs by Annexin V/Propidium iodide stain based Flow cytometry (reference value: 3.98%); format: functional
MDA-MB-231 [11] = test: Induction of mitochondrial depolarization in human MDA-MB-231 cells assessed as monomers at 1 uM in dark by JC10 staining based fluorescence microscopy (reference value: 5.6%); format: functional
MDA-MB-468 [12] = test: Induction of apoptosis in human MDA-MB-468 cells assessed as increase in cleaved caspase 3 at 1 to 5 uM measured after 24 hrs by Western blot analysis; format: functional, cell-based; settings: dose 1-5 µM
MDA-MB-468 [13] = test: Inhibition of Akt phosphorylation in human MDA-MB-468 cells measured after 24 hrs by Western blot analysis; format: cell-based; settings: dose 1-5 µM
MDA-MB-468 [14] = test: Induction of mitochondrial depolarization in human MDA-MB-468 cells assessed as aggregates at 2 uM in dark by JC10 staining based fluorescence microscopy (reference value: 91.6%); format: functional
MDA-MB-468 [15] = test: Induction of cell cycle arrest in human MDA-MB-468 cells assessed as accumulation of cells at G2 phase at 1 uM measured after 24 hrs by flow cytometry (reference value: 26.5%); format: functional
MDA-MB-231 [16] = test: Induction of apoptosis in human MDA-MB-231 cells assessed as late apoptotic cells at 1 uM measured after 24 hrs by Annexin V/Propidium iodide stain based Flow cytometry (reference value: 2.78%); format: functional
L02 = test: Cytotoxicity against human L02 cells assessed as reduction in cell viability incubated for 96 hrs by MTT method; format: cell-based; settings: L02, 96 h
[17] = biological target: RAC-alpha serine/threonine-protein kinase (Homo sapiens) (UniProt P31749); test: Binding affinity to Akt1 in human MDA-MB-468 cells assessed as shifted melting curve at 2 uM by CETSA assay; format: cell-based
MDA-MB-231 [18] = test: Effect on PI3K expression in human MDA-MB-231 cells measured at 1 to 5 uM after 24 hrs by Western blot analysis; format: functional, cell-based; settings: dose 1-5 µM
[19] = biological target: Serine/threonine-protein kinase mTOR (Homo sapiens) (UniProt P42345); test: Inhibition of mTOR phosphorylation in human MDA-MB-468 cells measured after 24 hrs by Western blot analysis; format: cell-based; settings: dose 1-5 µM
MDA-MB-231 [20] = test: Induction of autophagy in human MDA-MB-231 cells assessed as cleaved PARP at 1 to 5 uM incubated for 24 hrs in presence of chloroquine by Western blot analysis relative to control; format: functional, cell-based; settings: dose 1-5 µM
MDA-MB-231 [21] = test: Inhibition of PI3K phosphorylation in human MDA-MB-231 cells measured at 1 to 5 uM after 24 hrs by Western blot analysis; format: cell-based; settings: dose 1-5 µM
MDA-MB-231 [22] = test: Induction of mitochondrial depolarization in human MDA-MB-231 cells assessed as aggregates at 1 uM in dark by JC10 staining based fluorescence microscopy (reference value: 94.4%); format: functional
MDA-MB-231 [23] = test: Induction of cell cycle arrest in human MDA-MB-231 cells assessed as accumulation of cells at G2 phase at 5 uM measured after 24 hrs by flow cytometry (reference value: 20.2%); format: functional
MDA-MB-468 [24] = test: Induction of apoptosis in human MDA-MB-468 cells assessed as early apoptotic cells at 2 uM measured after 24 hrs by Annexin V/Propidium iodide stain based Flow cytometry (reference value: 7.98%); format: functional
MDA-MB-231 [25] = test: Induction of autophagy in human MDA-MB-231 cells assessed as increase in ATG5 expression at 1 to 5 uM incubated for 24 hrs by Western blot analysis; format: functional, cell-based; settings: dose 1-5 µM
MDA-MB-468 [26] = test: Antitumor activity against human MDA-MB-468 cells xenografted in NOD/SCID mouse assessed as decrease in Ki67 expression in tumor tissue at 5 to 10 mg/kg, ip treated for 33 days by immunohistochemical analysis; format: functional, organism-based; settings: dose 5-10 mg/kg, time 33.0 day
MDA-MB-231 [27] = test: Induction of cell cycle arrest in human MDA-MB-231 cells assessed as accumulation of cells at G2 phase at 1 uM measured after 24 hrs by flow cytometry (reference value: 20.2%); format: functional
[28] = biological target: Serine/threonine-protein kinase mTOR (Homo sapiens) (UniProt P42345); test: Inhibition of mTOR phosphorylation in human MDA-MB-231 cells measured after 24 hrs by Western blot analysis; format: cell-based; settings: dose 1-5 µM
MDA-MB-231 [29] = test: Induction of cell cycle arrest in human MDA-MB-231 cells assessed as accumulation of cells at G2 phase at 2 uM measured after 24 hrs by flow cytometry (reference value: 20.2%); format: functional
MDA-MB-231 [30] = test: Antiproliferative activity against human MDA-MB-231 cells assessed as supression of long term proliferative capacity measured after 2 weeks by Colony formation assay; format: functional, cell-based; settings: dose 0.05-0.2 µM
MDA-MB-231 [31] = test: Induction of apoptosis in human MDA-MB-231 cells assessed as increase in cleaved PARP at 1 to 5 uM measured after 24 hrs by Western blot analysis; format: functional, cell-based; settings: dose 1-5 µM
MDA-MB-468 [32] = test: Antitumor activity against human MDA-MB-468 cells xenografted in NOD/SCID mouse assessed as decrease in CD31 expression in tumor tissue at 5 to 10 mg/kg, ip treated for 33 days by immunohistochemical analysis; format: functional, organism-based; settings: dose 5-10 mg/kg, time 33.0 day
MDA-MB-231 [33] = test: Induction of apoptosis in human MDA-MB-231 cells assessed as decrease in Bcl2/Bax ratio at 1 to 5 uM measured after 24 hrs by Western blot analysis; format: functional, cell-based; settings: dose 1-5 µM

Chain of RAC-alpha serine/threonine-protein kinase (Homo sapiens) (P31749 whole entry): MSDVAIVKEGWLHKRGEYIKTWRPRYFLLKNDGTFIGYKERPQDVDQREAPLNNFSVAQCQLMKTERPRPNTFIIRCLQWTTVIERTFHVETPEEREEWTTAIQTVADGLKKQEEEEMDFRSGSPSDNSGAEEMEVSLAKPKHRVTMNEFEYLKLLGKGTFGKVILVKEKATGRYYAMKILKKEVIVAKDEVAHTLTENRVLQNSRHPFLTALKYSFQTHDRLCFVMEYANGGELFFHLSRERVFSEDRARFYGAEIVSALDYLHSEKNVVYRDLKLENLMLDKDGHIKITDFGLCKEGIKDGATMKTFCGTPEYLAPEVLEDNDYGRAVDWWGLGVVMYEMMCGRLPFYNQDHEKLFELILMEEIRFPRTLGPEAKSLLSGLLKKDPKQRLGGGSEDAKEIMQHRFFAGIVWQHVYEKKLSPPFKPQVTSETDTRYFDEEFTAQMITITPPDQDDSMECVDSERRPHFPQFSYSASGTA

C=C1C(=O)C2=C[C@H]1CCC(=O)[C@]1(C)[C@H](O)CCC(C)(C)[C@H]1C[C@H]2O
Activity [1]: Non-Toxic
Activity (MDA-MB-231 [2]): 76.2%
Activity (MDA-MB-468 [3]): 16.1%
Activity (MDA-MB-231 [4]): 33.8%
Activity (MDA-MB-231 [5]): Active
Activity (MDA-MB-231 [6]): Active
Activity (MDA-MB-231 [7]): inactive
Activity (MDA-MB-468 [8]): Active
inhibition (Homo sapiens): inactive
Activity (MDA-MB-468 [9]): 29.7%
Activity (MDA-MB-468 [10]): 25.9%
Activity (MDA-MB-231 [11]): 18.9%
Activity (MDA-MB-468 [12]): Active
inhibition (MDA-MB-468 [13]): Active
Activity (MDA-MB-468 [14]): 21.5%
Activity (MDA-MB-468 [15]): 57.9%
Activity (MDA-MB-231 [16]): 11.2%
IC50 (L02): > 5 µM
Activity [17]: Active
Activity (MDA-MB-231 [18]): inactive
inhibition [19]: Active
Activity (MDA-MB-231 [20]): inactive
inhibition (MDA-MB-231 [21]): inactive
Activity (MDA-MB-231 [22]): 81.1%
Activity (MDA-MB-231 [23]): 37.4%
Activity (MDA-MB-468 [24]): 35.5%
Activity (MDA-MB-231 [25]): Active
Activity (MDA-MB-468 [26]): Active
Activity (MDA-MB-231 [27]): 29.2%
inhibition [28]: Active
Activity (MDA-MB-231 [29]): 31.7%
Activity (MDA-MB-231 [30]): Active
Activity (MDA-MB-231 [31]): Active
Activity (MDA-MB-468 [32]): Active
Activity (MDA-MB-231 [33]): Active
